The values below come from patent US8742106B2 (Novartis AG, priority 2009, dated 2014).

Data set [1] concerns the target T1, human orexin 1 receptors (Homo sapiens (Human), UniProt O43613). Put plainly: Radioligand Binding Assay I ([125I]orexin A competition, cell membranes). The following applies: read-out: binding I hOx1R Kd. The procedure: (§1) Radioligand Binding Assay I
(§2) For crude cell membrane preparations, cells (CHO, Chinese hamster ovary or HEK, human embryonic kidney) expressing human orexin 1 or human orexin 2 receptors, were washed with HEPES (10 mM, pH 7.5), scraped off the culture plates with the same buffer, and centrifuged at 4° C. for 5 min at 2500×g. The cell pellet was either stored at −80° C. or used directly. Before the experiments, cell membranes were re-suspended in binding assay buffer (10 mM HEPES, 0.5% (w/v) bovine serum albumin, pH 7.5) by homogenisation with a Polytron homogeniser at 50 Hz for 20 s. Cell membranes were also used as made available by commercial providers.
(§3) In initial saturation experiments (to calculate Bmax), cell homogenates (150 μl) were incubated with 25-300 pM of the radioligand ([^125I]orexin A, 50 μl), 8 concentrations in triplicates in the presence or absence Orexin A (1 μM, 50 μl) to define non specific binding. Bound radioactivity was measured, and data were analysed with the program XLFIT or Graphpad Prism. Protein concentration was determined according to the Bradford/BioRad Protein Assay Kit.
(§4) In competition experiments, cell homogenates (150 μl) were incubated in assay buffer (10 mM HEPES, pH 7.5, 0.5% (w/v) bovine serum albumin, 5 mM MgCl2, 1 mM CaCl2, and tween 0.05%) for 1 h at room temperature with about 100 pM of the radioligand ([^125I]orexin A, 2100 Ci/mmole, 50 μl), and with various concentrations of compounds of the invention (50 μl) in triplicates; non-specific binding was determined in the presence of Orexin A (1 μM). Reactions were terminated by vacuum filtration, 3 washes of ice cold wash buffer (Tris-HCl pH 7.4/10 mM, with NaCl 154 mM).

In data set [2] the target is T2, human orexin 2 receptors (Homo sapiens (Human), UniProt O43614). The description is as above. The following applies: read-out: binding I hOx2R Kd. Here is the method:
as §1, §2, §3, §4

Data set [3] addresses T1, human orexin 1 receptors. The data set can be described thus: Calcium Accumulation in Cells (FLIPR), antagonism of orexin A. It is filed as cell-based. The following applies: antagonism of orexin A, Cheng-Prusoff corrected; read-out: FLIPR hOx1R Ki.
Data set [4] deals with T2, human orexin 2 receptors. The data set is described as above. Type of data set: cell-based. The following applies: antagonism of orexin A, Cheng-Prusoff corrected; read-out: FLIPR hOx2R Ki. The method, boiled down: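 Antagonism was measured as block of orexin A-evoked Ca²⁺ fluorescence (FLIPR), with orexin A added one hour after test compound (usually 10^−9–10^−5 M), which was first read alone for agonist activity. Human orexin 2 receptor cells were dye-loaded with 2 μM Fluo4-AM and 0.1 mM probenecid for 1 h.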

T2 sequence (O43614 whole entry): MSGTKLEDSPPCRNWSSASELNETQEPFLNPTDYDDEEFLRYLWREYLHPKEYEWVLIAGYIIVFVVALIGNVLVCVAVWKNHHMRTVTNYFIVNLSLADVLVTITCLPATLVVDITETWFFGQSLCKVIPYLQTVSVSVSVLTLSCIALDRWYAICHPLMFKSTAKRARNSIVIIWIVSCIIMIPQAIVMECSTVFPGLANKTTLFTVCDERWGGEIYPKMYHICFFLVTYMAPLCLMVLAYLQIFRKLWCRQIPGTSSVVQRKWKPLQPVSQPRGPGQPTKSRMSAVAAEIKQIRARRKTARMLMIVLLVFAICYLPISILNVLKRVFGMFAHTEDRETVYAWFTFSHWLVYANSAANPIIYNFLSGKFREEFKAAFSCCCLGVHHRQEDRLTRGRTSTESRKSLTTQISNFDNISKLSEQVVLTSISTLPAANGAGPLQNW
T1 sequence (O43613 whole entry): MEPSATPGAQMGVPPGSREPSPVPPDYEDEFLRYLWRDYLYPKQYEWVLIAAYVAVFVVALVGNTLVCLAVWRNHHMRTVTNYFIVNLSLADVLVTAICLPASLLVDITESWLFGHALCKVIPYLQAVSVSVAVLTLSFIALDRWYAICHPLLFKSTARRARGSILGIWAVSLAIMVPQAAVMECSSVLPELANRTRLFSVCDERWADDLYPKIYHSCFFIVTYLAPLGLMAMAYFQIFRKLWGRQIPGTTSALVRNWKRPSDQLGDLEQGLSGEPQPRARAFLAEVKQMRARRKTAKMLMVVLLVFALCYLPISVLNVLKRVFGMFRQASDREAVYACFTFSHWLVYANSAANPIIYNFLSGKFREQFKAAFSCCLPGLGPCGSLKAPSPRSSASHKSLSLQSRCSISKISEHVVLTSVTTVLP

`Cn1nc(-c2ccccc2)c2c(C(F)(F)F)cc(OCC(=O)N[C@H]3CCc4ccccc43)nc21` [Example 1.3, (S)—N-(2,3-dihydro-1H-inden-1-yl)-2-(1-methyl-3-phenyl-4-(trifluoromethyl)-1H-pyrazolo[3,4-b]pyridin-6-yloxy)acetamide] showed a melting point of 203 to 205.2 °C. In addition, the Kd on human orexin 1 receptors [1] is 348 nM. On human orexin 2 receptors [2], the Kd was 128 nM. For the same compound, the inhibition constant (Ki) at human orexin 1 receptors [3] is 211 nM. Besides, at human orexin 2 receptors [4], the inhibition constant Ki worked out at 69 nM.
Take `Cc1n[nH]c(C)c1[C@H](C)NC(=O)COc1cc(C(F)(F)F)c2c(-c3ccccc3)nn(C)c2n1` [Example 1.6, (S)—N-(1-(3,5-dimethyl-1H-pyrazol-4-yl)ethyl)-2-(1-methyl-3-phenyl-4-(trifluoromethyl)-1H-pyrazolo[3,4-b]pyridin-6-yloxy)acetamide]: the melting point lay in the range of 145 to 147 °C.
Turning to `Cc1cccc(-c2nn(C)c3nc(OCC(=O)N[C@@H](C)c4ccccc4)cc(C(F)(F)F)c23)c1` [Example 1.24, (S)-2-(1-methyl-3-m-tolyl-4-(trifluoromethyl)-1H-pyrazolo[3,4-b]pyridin-6-yloxy)-N-(1-phenylethyl)acetamide], the equilibrium dissociation constant (Kd) at human orexin 1 receptors [1] amounted to 48 nM; on human orexin 2 receptors [2], 153 nM. In addition, the results for the inhibitory constant (Ki) at human orexin 1 receptors [3] and at human orexin 2 receptors [4] were 54 nM and 87 nM, respectively.
For `Cc1ccc(CNC(=O)COc2cc(C(F)(F)F)c3c(-c4ccccc4)nn(C)c3n2)cc1` [Example 1.32, 2-(1-methyl-3-phenyl-4-(trifluoromethyl)-1H-pyrazolo[3,4-b]pyridin-6-yloxy)-N-(4-methylbenzyl)acetamide] the same measures were 2600 nM, 1380 nM, 851 nM and 115 nM.
Regarding `CCn1nccc1C(C)NC(=O)COc1cc(C(F)(F)F)c2c(-c3ccccc3)nn(C)c2n1` (stereo not shown) [Example 1.39, N-(1-(1-ethyl-1H-pyrazol-5-yl)ethyl)-2-(1-methyl-3-phenyl-4-(trifluoromethyl)-1H-pyrazolo[3,4-b]pyridin-6-yloxy)acetamide], the Kd on human orexin 1 receptors [1] is 330 nM; on human orexin 2 receptors [2], 1130 nM. In addition, the Ki at human orexin 1 receptors [3] was determined as 222 nM; on human orexin 2 receptors [4], 353 nM.
For `COc1ccc(CNC(=O)COc2cc(C(F)(F)F)c3c(-c4ccccc4)nn(C)c3n2)cc1` [Example 1.41, N-(4-methoxybenzyl)-2-(1-methyl-3-phenyl-4-(trifluoromethyl)-1H-pyrazolo[3,4-b]pyridin-6-yloxy)acetamide] the same measures were 1240 nM, 410 nM, 800 nM and 83 nM.
For `COc1ccc(C(C)NC(=O)COc2cc(C(F)(F)F)c3c(-c4ccccc4)nn(C)c3n2)cc1` (stereo not shown) [Example 1.45, N-(1-(4-methoxyphenyl)ethyl)-2-(1-methyl-3-phenyl-4-(trifluoromethyl)-1H-pyrazolo[3,4-b]pyridin-6-yloxy)acetamide] the same measures were 32 nM, 7 nM, 29 nM and 2 nM.
For `COc1cccc(C(C)NC(=O)COc2cc(C(F)(F)F)c3c(-c4ccccc4)nn(C)c3n2)c1` (stereo not shown) [Example 1.46, N-(1-(3-methoxyphenyl)ethyl)-2-(1-methyl-3-phenyl-4-(trifluoromethyl)-1H-pyrazolo[3,4-b]pyridin-6-yloxy)acetamide] the same measures were 42 nM, 101 nM, 20 nM and 26 nM.
As to `Cc1ccc(-c2nn(C)c3nc(OCC(=O)N[C@@H](C)c4ccccc4)cc(C(F)(F)F)c23)cc1` [Example 1.48, (S)-2-(1-methyl-3-p-tolyl-4-(trifluoromethyl)-1H-pyrazolo[3,4-b]pyridin-6-yloxy)-N-(1-phenylethyl)acetamide], the Kd was determined as 490 nM on human orexin 1 receptors [1] and 212 nM on human orexin 2 receptors [2]. Besides, the Ki on human orexin 1 receptors [3] was 178 nM; on human orexin 2 receptors [4], 75 nM.
With `COc1ccccc1-c1nn(C)c2nc(OCC(=O)N[C@@H](C)c3ccccc3)cc(C(F)(F)F)c12` [Example 1.49, (S)-2-(3-(2-methoxyphenyl)-1-methyl-4-(trifluoromethyl)-1H-pyrazolo[3,4-b]pyridin-6-yloxy)-N-(1-phenylethyl)acetamide], the Kd was 6 nM at human orexin 1 receptors [1] and 715 nM at human orexin 2 receptors [2]. In addition, the Ki turned out to be 15 nM at human orexin 1 receptors [3] and 243 nM on human orexin 2 receptors [4].
For `C[C@H](NC(=O)COc1cc(C(F)(F)F)c2c(-c3cccc(Br)c3)nn(C)c2n1)c1ccccc1` [Example 1.58, (S)-2-(3-(3-bromophenyl)-1-methyl-4-(trifluoromethyl)-1H-pyrazolo[3,4-b]pyridin-6-yloxy)-N-(1-phenylethyl)acetamide] the same measures were 170 nM, 436 nM, 77 nM and 201 nM.
Turning to `Cn1nc(-c2ccccc2F)c2c(C(F)(F)F)cc(OCC(=O)N[C@H]3CCc4ccccc43)nc21` [Example 1.60, (S)-N-(2,3-dihydro-1H-inden-1-yl)-2-(3-(2-fluorophenyl)-1-methyl-4-(trifluoromethyl)-1H-pyrazolo[3,4-b]pyridin-6-yloxy)acetamide], the Kd was found to be 418 nM on human orexin 1 receptors [1] and 144 nM on human orexin 2 receptors [2]. Moreover, the Ki at human orexin 1 receptors [3] turned out to be 236 nM; on human orexin 2 receptors [4] it was 36 nM.
In the case of `Cn1nc(-c2cccc(F)c2)c2c(C(F)(F)F)cc(OCC(=O)N[C@H]3CCc4ccccc43)nc21` [Example 1.61, (S)-N-(2,3-dihydro-1H-inden-1-yl)-2-(3-(3-fluorophenyl)-1-methyl-4-(trifluoromethyl)-1H-pyrazolo[3,4-b]pyridin-6-yloxy)acetamide], the Kd on human orexin 1 receptors [1] is 204 nM; at human orexin 2 receptors [2], 89 nM. Further, the Ki on human orexin 1 receptors [3] came to 117 nM; at human orexin 2 receptors [4] it was 33 nM.
For `COc1ccc(C(C)NC(=O)COc2cc(C(F)(F)F)c3c(-c4ccccc4)nn(C)c3n2)cn1` (stereo not shown) [Example 1.67, N-(1-(6-methoxypyridin-3-yl)ethyl)-2-(1-methyl-3-phenyl-4-(trifluoromethyl)-1H-pyrazolo[3,4-b]pyridin-6-yloxy)acetamide] the same measures were 46 nM, 20 nM, 27 nM and 2 nM.
For `Cc1nn(C)c(C)c1C(C)NC(=O)COc1cc(C(F)(F)F)c2c(-c3ccccc3)nn(C)c2n1` (stereo not shown) [Example 1.70, 2-(1-methyl-3-phenyl-4-(trifluoromethyl)-1H-pyrazolo[3,4-b]pyridin-6-yloxy)-N-(1-(1,3,5-trimethyl-1H-pyrazol-4-yl)ethyl)acetamide] the same measures were 26 nM, 50 nM, 8 nM and 10 nM.
For `COc1ccc([C@H](C)NC(=O)COc2cc(C)c3c(C4CC4)nn(C)c3n2)cc1` [Example 1.71, (S)-2-(3-cyclopropyl-1,4-dimethyl-1H-pyrazolo[3,4-b]pyridin-6-yloxy)-N-(1-(4-methoxyphenyl)ethyl)acetamide] the same measures were 105 nM, 63 nM, 145 nM and 88 nM.
Turning to `Cc1ccc(C(C)NC(=O)COc2cc(C(F)(F)F)c3c(-c4ccccc4)nn(C)c3n2)cn1` (stereo not shown) [Example 1.77, 2-(1-methyl-3-phenyl-4-(trifluoromethyl)-1H-pyrazolo[3,4-b]pyridin-6-yloxy)-N-(1-(6-methylpyridin-3-yl)ethyl)acetamide], the Kd on human orexin 1 receptors [1] was 161 nM; at human orexin 2 receptors [2], 87 nM. The Ki on human orexin 1 receptors [3] was 74 nM; on human orexin 2 receptors [4], 21 nM.
In turn, `C[C@H](NC(=O)COc1ccc2c(-c3ccccc3)nn(C)c2n1)c1ccccc1` [Example 2.1, (S)-2-(1-methyl-3-phenyl-1H-pyrazolo[3,4-b]pyridin-6-yloxy)-N-(1-phenylethyl)acetamide] showed a melting point of 55 to 56 °C. Further, the Ki at human orexin 1 receptors [3] was 492 nM. The Ki at human orexin 2 receptors [4] came to 865 nM.
As to `C[C@H](NC(=O)COc1cc(C(F)(F)F)c2c(-c3ccccc3)cn(C)c2n1)c1ccccc1` [Example 6.77, (S)-2-(1-methyl-3-phenyl-4-(trifluoromethyl)-1H-pyrrolo[2,3-b]pyridin-6-yloxy)-N-(1-phenylethyl)acetamide], the figures for the Kd at human orexin 1 receptors [1] and at human orexin 2 receptors [2] were 501 nM and 240 nM, respectively. The Ki amounted to 148 nM on human orexin 1 receptors [3] and 59 nM at human orexin 2 receptors [4].
